What was measured:
[1] = upon dissolution in solvents; cited from earlier work
COX-I = COX-I (Homo sapiens, UniProt P23219); details: oral form; cited from earlier work
[2] = cited from earlier work
[3] = test system: interleukin1b-induced prostaglandin E2 production; details: cited from earlier work
Acute Lumbago patients = assay: Randomized comparative open labeled multicentric trial in Acute Lumbago (Phase III, 300 patients); format: in vivo, human; details: at 8 hrs, 24 hrs and after 48 hrs of treatment; p<0.05
[4] = aqueous formulation; cited from earlier work

Chain of COX-I (P23219 24-599): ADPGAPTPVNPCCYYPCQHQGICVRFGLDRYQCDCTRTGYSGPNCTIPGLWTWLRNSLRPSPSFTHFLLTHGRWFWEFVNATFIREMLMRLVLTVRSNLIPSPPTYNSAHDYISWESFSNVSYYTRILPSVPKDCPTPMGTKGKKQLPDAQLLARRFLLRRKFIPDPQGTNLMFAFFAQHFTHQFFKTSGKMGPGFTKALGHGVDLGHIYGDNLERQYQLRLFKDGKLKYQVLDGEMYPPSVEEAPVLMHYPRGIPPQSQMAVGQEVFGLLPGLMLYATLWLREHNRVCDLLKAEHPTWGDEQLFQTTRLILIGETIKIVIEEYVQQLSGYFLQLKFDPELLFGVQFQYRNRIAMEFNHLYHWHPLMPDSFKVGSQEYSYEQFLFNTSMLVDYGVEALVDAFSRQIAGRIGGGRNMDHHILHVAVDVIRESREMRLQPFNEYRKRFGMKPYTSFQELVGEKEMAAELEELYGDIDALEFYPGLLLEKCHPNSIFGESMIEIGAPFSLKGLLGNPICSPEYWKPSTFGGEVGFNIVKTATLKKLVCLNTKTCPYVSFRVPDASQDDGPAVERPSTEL

Compound: O=C(O)COC(=O)Cc1ccccc1Nc1c(Cl)cccc1Cl [Aceclofenac]
- conversion into diclofenac [1]: immediately upon dissolution in most of the solvents
- COX-I inhibitor effect (COX-I): poor COX-I inhibitor effect
- solubility in water [2]: water insoluble
- interleukin1b-induced prostaglandin E2 production [3]: inhibits

Compound: O=C(O)Cc1ccccc1Nc1c(Cl)cccc1Cl [Diclofenac]
- modified Schober's test improvement (Acute Lumbago patients): progressive improvements
- solubility in water [2]: soluble in water
- retention of drug inside body [4]: ≤ 8 h

From patent US8734852B2, “Parenteral controlled release formulations of NSAID's” (priority 2011, dated 2014)
